Measured values: PubChem BioAssay (NCI)
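Results reflect a 48-hour exposure of cells in 96-well plates to compound at five concentrations. GI50 = concentration required for 50% inhibition of growth. The concentration for full growth arrest is given as TGI.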

Assays:
Experiment in all cases: inhibition of tumour cell growth, NCI panel, 48 h
[1] = system: NCI-H226 lung
[2] = system: SNB-75 CNS
[3] = system: SN12C renal
[4] = system: EKVX NSCLC
[5] = system: SF-295 CNS
[6] = system: HS 578T breast
[7] = system: BT-549 breast
[8] = system: HOP-92 NSCLC
[9] = system: CCRF-CEM leukemia
[10] = system: UACC-257 melanoma
[11] = system: NCI-H522 lung
[12] = system: SF-539 CNS
[13] = system: NCI/ADR-RES ovarian
[14] = system: MOLT-4 leukemia
[15] = system: IGROV1 ovarian
[16] = system: RPMI-8226 leukemia
[17] = system: OVCAR-4 ovarian
[18] = system: HOP-62 NSCLC
[19] = system: UO-31 renal
[20] = system: HT29 colon
[21] = system: HCC-2998 colon
[22] = system: HCT-116 colon
[23] = system: SF-268 CNS
[24] = system: DU-145 prostate
[25] = system: OVCAR-5 ovarian
[26] = system: SNB-19 CNS
[27] = system: NCI-H460 lung
[28] = system: K-562 leukemia
[29] = system: TK-10 renal
[30] = system: SW-620 colon
[31] = system: CAKI-1 renal
[32] = system: RXF 393 renal
[33] = system: UACC-62 melanoma
[34] = system: SK-MEL-5 melanoma
[35] = system: 786-0 renal
[36] = system: A549 NSCLC
[37] = system: SK-OV-3 ovarian
[38] = system: MDA-MB-435
[39] = system: U251 CNS
[40] = system: KM12 colon
[41] = system: HCT-15 colon
[42] = system: LOX IMVI melanoma
[43] = system: ACHN renal
[44] = system: PC-3 prostate
[45] = system: MALME-3M melanoma
[46] = system: COLO 205 colon
[47] = system: OVCAR-8 ovarian
[48] = system: M14 melanoma
[49] = system: NCI-H23 lung
[50] = system: SK-MEL-2 melanoma
[51] = system: SR leukemia
[52] = system: A498 renal
[53] = system: MDA-MB-231 breast
[54] = system: OVCAR-3 ovarian
[55] = system: SK-MEL-28 melanoma

What does the source list for C=C1C(=O)O[C@H]2[C@H]1CC/C(COC(=O)NCCc1c[nH]c3ccc(Cl)cc13)=C\CC[C@@]1(C)O[C@@H]21?
GI50 [1]: 1920 nM; TGI [1]: 3.64 µM; GI50 [2]: 1330 nM; TGI [2]: 2970 nM; GI50 [3]: 1640 nM; TGI [3]: 3.17 µM; GI50 [4]: 1730 nM; TGI [4]: 3.53 µM; GI50 [5]: 6.53 µM; TGI [5]: 20.3 µM; GI50 [6]: 3.21 µM; TGI [6]: 9.76 µM; GI50 [7]: 1440 nM; TGI [7]: 2990 nM; GI50 [8]: 1400 nM; TGI [8]: 2840 nM; GI50 [9]: 583 nM; TGI [9]: 3.07 µM; GI50 [10]: 1720 nM; TGI [10]: 3.19 µM; GI50 [11]: 1690 nM; TGI [11]: 3.35 µM; GI50 [12]: 1750 nM; TGI [12]: 3.32 µM; GI50 [13]: 2740 nM; TGI [13]: 9.77 µM; GI50 [14]: 1710 nM; TGI [14]: 5.27 µM; GI50 [15]: 1550 nM; TGI [15]: 3.11 µM; GI50 [16]: 1200 nM; TGI [16]: 4.21 µM; GI50 [17]: 1500 nM; TGI [17]: 3.05 µM; GI50 [18]: 2180 nM; TGI [18]: 5.48 µM; GI50 [19]: 1310 nM; TGI [19]: 2590 nM; GI50 [20]: 1460 nM; TGI [20]: 3.24 µM; GI50 [21]: 1960 nM; TGI [21]: 4.03 µM; GI50 [22]: 1560 nM; TGI [22]: 2970 nM; GI50 [23]: 1770 nM; TGI [23]: 3.37 µM; GI50 [24]: 1610 nM; TGI [24]: 3.25 µM; GI50 [25]: 1970 nM; TGI [25]: 4.19 µM; GI50 [26]: 3.98 µM; TGI [26]: 14.8 µM; GI50 [27]: 2200 nM; TGI [27]: 4.64 µM; GI50 [28]: 1100 nM; TGI [28]: 5.95 µM; GI50 [29]: 1590 nM; TGI [29]: 2970 nM; GI50 [30]: 1820 nM; TGI [30]: 4.26 µM; GI50 [31]: 1480 nM; TGI [31]: 2820 nM; GI50 [32]: 1540 nM; TGI [32]: 2940 nM; GI50 [33]: 1610 nM; TGI [33]: 3.07 µM; GI50 [34]: 1830 nM; TGI [34]: 3.33 µM; GI50 [35]: 1380 nM; TGI [35]: 2790 nM; GI50 [36]: 2280 nM; TGI [36]: 5.84 µM; GI50 [37]: 13.2 µM; TGI [37]: 26 µM; GI50 [38]: 1520 nM; TGI [38]: 3 µM; GI50 [39]: 1800 nM; TGI [39]: 3.31 µM; GI50 [40]: 2640 nM; TGI [40]: 7.32 µM; GI50 [41]: 1160 nM; TGI [41]: 2660 nM; GI50 [42]: 1280 nM; TGI [42]: 2680 nM; GI50 [43]: 1540 nM; TGI [43]: 2880 nM; GI50 [44]: 1720 nM; TGI [44]: 3.35 µM; GI50 [45]: 1780 nM; TGI [45]: 3.44 µM; GI50 [46]: 1850 nM; TGI [46]: 3.59 µM; GI50 [47]: 1600 nM; TGI [47]: 3.26 µM; GI50 [48]: 1610 nM; TGI [48]: 3.13 µM; GI50 [49]: 1790 nM; TGI [49]: 3.49 µM; GI50 [50]: 1630 nM; TGI [50]: 3.15 µM; GI50 [51]: 944 nM; TGI [51]: 5.95 µM; GI50 [52]: 3.39 µM; TGI [52]: 14.7 µM; GI50 [53]: 1840 nM; TGI [53]: 3.44 µM; GI50 [54]: 1770 nM; TGI [54]: 3.83 µM; GI50 [55]: 1790 nM; TGI [55]: 3.43 µM
